The test in a line: CEST MR phantom imaging on 4.7 T scanner. The conditions noted are these: 4 mM complex, pH 7.4-7.5, 37° C.; for % CEST: 20 mM HEPES, 100 mM NaCl, 4.7 T MRI scanner. How it is done: CEST MR images were acquired at 4.7 Tesla preclinical MR scanner using a 35 mm transceiver coil (ParaVision 3.0.2, Bruker Biospin, Billerica, Mass.) as detailed elsewhere. Two spoiled gradient-echo images (TE/TR=2.1/5010 ms, flip angle=90 deg) were acquired at 37° C. after employing a pulse train comprised of five Gauss pulses ([…] for 1 second each, interpulse delay of 200 μs) applied symmetrically about the bulk water resonance.
Image processing was carried out using in-house software algorithms developed in MATLAB (MathWorks, Natick, Mass.). Each image was normalized to the mean intensity of the buffer/salt phantom, and the mean signal intensity of each compound was sampled. The percent change in signal, or CEST effect (CE), was calculated as: CE=(1−SIon/SIoff)*100%, where SIon and SIoff represent the mean signal intensity of each sample with the pre-saturation pulse applied on- and off-resonance of the exchangeable protons, respectively. CEST images (FIGS. 14, 15) were calculated by determining CE on a pixel-by-pixel basis in MATLAB. To improve visualization of the CEST effect, images were filtered with a spatial averaging filter (kernel size=5×5), background noise was removed using a binary mask of the samples, and a ‘hotiron’ color lookup table was applied. […] Imaging parameters for the FID-FISP acquisition include: matrix=128×128, field of view=3.2×3.2 cm, TE/TR=1.5/3.0 ms, flip angle=90, number of repetitions=20. Processing was carried out as above with the exception that the 20 repetition image datasets were averaged together prior to normalization by the buffer signal intensity. The experiment was repeated with three separate preparations of [Co(CCRM)]^2+.
CEST images were acquired on a 4.7 Tesla preclinical MR scanner using a 35 mm radiofrequency coil and the ParaVision 3.0.2 research platform (Bruker Biospin, Billerica, Mass.). A pair of gradient-echo MR images were acquired at either 37° C. with a pre-saturation pulse train comprised of five 1 second Gauss pulses (12 μT, 200 μs interpulse delay) applied symmetrically about the bulk water resonance (+/−135 ppm). Other pertinent acquisition parameters include: echo time/repetition time=2.1/5010 ms, flip angle=90 deg, acquisition matrix=160×160, slice thickness=2 mm, field of view=32×32 mm, averages=1.
To determine the CEST effect, each image was normalized to the signal intensity of the buffer and salt-only phantom and the normalized image intensity of each phantom was sampled using commercially available software (Analyze 7.0, AnalyzeDirect Inc., Overland Park, Kans.). The percent loss of signal due to […] exchange was calculated using the following equation: % CEST=1−SIon/SIoff, eq. 9 where SIon and SIoff are the image intensities of each sample acquired with on-resonance and off-resonance pre-saturation pulses, respectively. To create the CEST image (FIG. 46), raw k-space data was zero-filled to a 512×512 matrix, reconstructed to spatial domain, filtered with a spatial low-pass filter (kernel size: 11×11) to improve signal-to-noise, and then normalized by image intensity of the buffer and salt-only phantom. The % CEST effect was calculated pixel-by-pixel using the normalized on/off resonance image pair in MATLAB (MathWorks, Natick, Mass.). Phantoms in the CEST image were isolated using binary masking techniques, and a “hot-iron” pseudocolor lookup table was applied to enhance perceptual contrast between samples.

SMILES strings stand for the structures.

As to `NC(=O)CN1CCCN(CC(N)=O)CCN(CC(N)=O)CCCN(CC(N)=O)CC1.[Co+2]` [[Co(CCRM)]^2+], for the setting “peak at 95 ppm, 4.7 T”, the “% CEST, peak at 95 ppm” value amounted to 5%. The “% CEST, peak at 112 ppm” value (peak at 112 ppm, 4.7 T) is recorded as 8%. Consider `NC(=O)CN1CCOCCOCCN(CC(N)=O)CCOCC1.[Co+2]` [[Co(NOPE)]^2+], for which the “% CEST” value is 12%.

In the case of `NC(=O)CN1CCN(CC(N)=O)CCN(CC(N)=O)CCN(CC(N)=O)CC1.[Co+2]` [[Co(TCMC)]^2+], the “% CEST” value came to 12%. Still for that read-out and setting: the figure for `NC(=O)CN1CCN(CC(N)=O)CCN(CC(N)=O)CC1.[Co+2]` [[Co(TCMT)]^2+] is 8%.

The record behind these values is patent US10960088B2, “Macrocycles, cobalt and iron complexes of same, and methods of making and using same” (The Research Foundation for The State University of New York, priority 2013, dated 2021).
